Assay results: patent publication US7608615B2, “Pyrrolo[2,1-C][1,4]benzodiazepine hybrids and a process for the preparation thereof” (Council of Scientific & Industrial Research, priority 2006, dated 2009)

How the values were obtained:
Type in all cases: cell-based, human
DU145 = assay: in vitro cytotoxicity, DU145 prostate cancer cells; settings: for percentage cell growth (Activity status in terms of IC50 values) DU145 Prostate: 48 h continuous drug exposure, percent of cell growth relative to untreated control cells; for suppress DU145 cell growth: suppression of cell growth, 48 h exposure
Method: (§1) Cytotoxicity: The compounds 7-methoxy-8-[3-(6-chloro-2-oxo-4-phenyl-1,2-dihydro-1-quinazolinyl)propoxy]-(11aS)-1,2,3,11a-tetrahydro-5H-pyrrolo[2,1-c][1,4]benzodiazepine-5-one and 7-methoxy-8-[5-(6-chloro-2-oxo-4-phenyl-1,2-dihydro-1-quinazolinyl)pentyloxy]-(11aS)-1,2,3,11a-tetrahydro-5H-pyrrolo [2,1-c][1,4]benzodiazepine-5-one were evaluated for in vitro anticancer activity against nine human tumour cells derived from six cancer types (colon, prostate, oral, lung, cervix and breast cancer) as shown in (Table 1).
(§2) Compounds 5d and 5f have been evaluated for their in vitro cytotoxicity in selected human cancer cell lines of colon (Colo205), lung (Hop-62), cervix (SiHa), prostate (DU145, PC3), oral (DWD, HT1080), and breast (MCF7, Zr-75-1) origin. A protocol of 48 h continuous drug exposure and an […] protein assay has been used to estimate cell viability or growth. The results are expressed as percent of cell growth determined relative to that of untreated control cells (Table 1).

Colo205 = assay: in vitro cytotoxicity, Colo205 colon cancer cells; settings: for percentage cell growth (Activity status in terms of IC50 values) Colo205 Colon: 48 h continuous drug exposure, percent of cell growth relative to untreated control cells; for suppress Colo205 cell growth: suppression of cell growth, 48 h exposure
Method: as §1, §2

HT1080 = assay: in vitro cytotoxicity, HT1080 oral cancer cells; settings: for percentage cell growth (Activity status in terms of IC50 values) HT1080 Oral: 48 h continuous drug exposure, percent of cell growth relative to untreated control cells; for suppress HT1080 cell growth: suppression of cell growth, 48 h exposure
Method: as §1, §2

DWD = assay: in vitro cytotoxicity, DWD oral cancer cells; settings: for percentage cell growth (Activity status in terms of IC50 values) DWD Oral: 48 h continuous drug exposure, percent of cell growth relative to untreated control cells; for suppress DWD cell growth: suppression of cell growth, 48 h exposure
Method: as §1, §2

SiHa = assay: in vitro cytotoxicity, SiHa cervix cancer cells; settings: for percentage cell growth (Activity status in terms of IC50 values) SiHa Cervix: 48 h continuous drug exposure, percent of cell growth relative to untreated control cells; for suppressing the SiHa cell growth: suppression of cell growth, 48 h exposure
Method: as §1, §2

PC3 = assay: in vitro cytotoxicity, PC3 prostate cancer cells; settings: for percentage cell growth (Activity status in terms of IC50 values) PC3 Prostate: 48 h continuous drug exposure, percent of cell growth relative to untreated control cells; for suppress PC3 cell growth: suppression of cell growth, 48 h exposure
Method: as §1, §2

Zr-75-1 = assay: in vitro cytotoxicity, Zr-75-1 breast cancer cells; settings: for percentage cell growth (Activity status in terms of IC50 values) Zr-75-1 Breast: 48 h continuous drug exposure, percent of cell growth relative to untreated control cells; for suppressing Zr-25-1 cell growth: suppression of cell growth, 48 h exposure
Method: as §1, §2

Hop62 = assay: in vitro cytotoxicity, Hop62 lung cancer cells; settings: for percentage cell growth (Activity status in terms of IC50 values) Hop62 Lung: 48 h continuous drug exposure, percent of cell growth relative to untreated control cells; for suppress Hop62 cell growth: suppression of cell growth, 48 h exposure
Method: as §1, §2

MCF7 = assay: in vitro cytotoxicity, MCF7 breast cancer cells; settings: for percentage cell growth (Activity status in terms of IC50 values) MCF7 Breast: 48 h continuous drug exposure, percent of cell growth relative to untreated control cells; for suppress MCF7 cell growth: suppression of cell growth, 48 h exposure
Method: as §1, §2

| SMILES | percentage cell growth (Activity status in terms of IC50 values) DU145 Prostate (DU145) [%] | percentage cell growth (Activity status in terms of IC50 values) Colo205 Colon (Colo205) [%] | percentage cell growth (Activity status in terms of IC50 values) HT1080 Oral (HT1080) [%] | percentage cell growth (Activity status in terms of IC50 values) DWD Oral (DWD) [%] | percentage cell growth (Activity status in terms of IC50 values) SiHa Cervix (SiHa) [%] | percentage cell growth (Activity status in terms of IC50 values) PC3 Prostate (PC3) [%] | percentage cell growth (Activity status in terms of IC50 values) Zr-75-1 Breast (Zr-75-1) [%] | percentage cell growth (Activity status in terms of IC50 values) Hop62 Lung (Hop62) [%] | percentage cell growth (Activity status in terms of IC50 values) MCF7 Breast (MCF7) [%] | suppress DU145 cell growth (DU145) [%] | suppress Colo205 cell growth (Colo205) [%] | suppress HT1080 cell growth (HT1080) [%] | suppress DWD cell growth (DWD) [%] | suppressing the SiHa cell growth (SiHa) [%] | suppress PC3 cell growth (PC3) [%] | suppressing Zr-25-1 cell growth (Zr-75-1) [%] | suppress Hop62 cell growth (Hop62) [%] | suppress MCF7 cell growth (MCF7) [%] |
| --- | --- | --- | --- | --- | --- | --- | --- | --- | --- | --- | --- | --- | --- | --- | --- | --- | --- | --- |
| COc1cccc2c1C(=O)c1c(O)c3c(c(O)c1C2=O)C[C@@](O)(C(=O)CO)C[C@@H]3O[C@H]1C[C@H](N)[C@H](O)[C@H](C)O1 [ADR, adriamycin, reference compound] | 6 | 5 | 4 | 2 | 5 | 5 | 5 | 5 | 5 |  |  |  |  |  |  |  |  |  |
| COc1cc2c(cc1OCCCn1c(=O)nc(-c3ccccc3)c3cc(Cl)ccc31)N=C[C@@H]1CCCN1C2=O [Compound 5d, 7-Methoxy-8-[3-(6-chloro-2-oxo-4-phenyl-1,2-dihydro-1-quinazolinyl)propoxy]-(11aS)-1,2,3,11a-tetrahydro-5H-pyrrolo[2,1-c][1,4]benzodiazepine-5-one] | 8 | 8 | 9 | 5 | 16 | 11 | 8 | 6 | 12 | 92 | 92 | 91 | 95 | 84 | 89 | 92 | 94 | 88 |
| COc1cc2c(cc1OCCCCCn1c(=O)nc(-c3ccccc3)c3cc(Cl)ccc31)N=C[C@@H]1CCCN1C2=O [Compound 5f, 7-Methoxy-8-[5-(6-chloro-2-oxo-4-phenyl-1,2-dihydro-1-quinazolinyl)pentyloxy]-(11aS)-1,2,3,11a-tetrahydro-5H-pyrrolo[2,1-c][1,4]benzodiazepine-5-one] | 10 | 15 | 8 | 5 | 16 | 7 | 8 | 5 | 8 | 90 | 85 | 92 | 95 | 84 | 93 | 92 | 95 | 92 |
